According to US7691844B2, “Nonpeptide substituted spirobenzoazepines as vasopressin antagonists” (Ortho-McNeil Pharmaceutical, Inc., priority 2000, dated 2010):

What was measured:
V1a = V1a (Homo sapiens, UniProt P37288); assay: In-vitro receptor binding assay (3H-arginine-8-vasopressin), V1a
Experimental: (§1) (A) In-Vitro Binding Assay […] The reaction plates are allowed to sit at room temperature for one hour. The samples are filtered through Unifilter GF/C plates (presoaked in 0.3 polyethyleneimine). The plates are washed 5 times with cold physiological saline containing 0.05% Tween 20. After drying, the bottom of the filter plates are sealed and 0.025 ml of Microscint-20 is added to each filter. The top of the plate is sealed, and the plate is counted. Non-specific binding is determined by the addition of 1.25 μM […]-vasopressin in those wells. % Inh. is calculated as follows: […]

human V2 receptor = human V2 receptor (Homo sapiens, UniProt P30518); assay: In-vitro receptor binding assay (3H-arginine-8-vasopressin), V2
Experimental: as §1

[1] = @ 10 μM, read-out: Receptor Binding V2 (% Inh. @ concentration in μM)

Chain of V1a (P37288 whole entry): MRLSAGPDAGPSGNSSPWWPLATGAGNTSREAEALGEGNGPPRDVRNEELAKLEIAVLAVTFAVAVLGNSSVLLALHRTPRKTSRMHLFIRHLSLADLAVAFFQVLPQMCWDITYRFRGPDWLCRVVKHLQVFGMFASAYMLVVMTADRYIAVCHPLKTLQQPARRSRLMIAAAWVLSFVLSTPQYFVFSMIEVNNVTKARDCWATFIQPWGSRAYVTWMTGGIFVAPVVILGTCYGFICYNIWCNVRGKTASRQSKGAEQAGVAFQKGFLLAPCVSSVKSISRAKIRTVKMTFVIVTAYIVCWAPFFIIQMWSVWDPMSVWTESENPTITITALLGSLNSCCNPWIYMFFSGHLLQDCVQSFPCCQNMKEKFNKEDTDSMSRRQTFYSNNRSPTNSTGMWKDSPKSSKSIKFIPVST
Chain of human V2 receptor (P30518 whole entry): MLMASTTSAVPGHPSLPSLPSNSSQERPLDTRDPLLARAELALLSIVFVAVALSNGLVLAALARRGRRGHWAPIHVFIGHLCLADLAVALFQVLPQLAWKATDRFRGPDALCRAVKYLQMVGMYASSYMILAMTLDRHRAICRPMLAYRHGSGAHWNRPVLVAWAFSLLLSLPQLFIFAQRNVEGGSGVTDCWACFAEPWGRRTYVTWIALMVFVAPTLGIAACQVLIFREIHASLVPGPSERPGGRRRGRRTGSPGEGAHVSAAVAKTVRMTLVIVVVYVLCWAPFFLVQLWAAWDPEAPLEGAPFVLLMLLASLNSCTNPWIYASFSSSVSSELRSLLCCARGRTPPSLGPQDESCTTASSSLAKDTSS

Row | Compound | IC50 (V1a) | IC50 (human V2 receptor) | further results
1 | O=CC1=CC2(CC1)CCN(C(=O)c1ccc(NC(=O)c3ccccc3-c3ccccc3)cc1)c1ccccc1C2 (stereo not shown) [Compound 2, 4-(2-Phenylbenzoyl-4-aminobenzoyl)-3′-(formyl)-4-aza-[6,4]-spiro-[5,6]-benzoundec-2′-ene] | 0.016 µM | 0.029 µM | –
2 | O=C(O)C1=CC2(CC1)CCN(C(=O)c1ccc(NC(=O)c3ccccc3F)cc1)c1ccccc1C2 (stereo not shown) [Compound 7, 4-(2-Fluorobenzoyl-4-aminobenzoyl)-3′-(carboxyl)-4-aza-[6,4]-spiro-[5,6]-benzoundec-2′-ene] | – | – | Receptor Binding V1a (% Inh. @ concentration in μM) (V1a; @ 0.1 μM): 43% @ 0.1; Receptor Binding V2 (% Inh. @ concentration in μM) (human V2 receptor; @ 0.1 μM): 15% @ 0.1
3 | O=C(O)CNC(=O)C1=CC2(CC1)CCN(C(=O)c1ccc(NC(=O)c3ccccc3-c3ccccc3)cc1)c1ccccc1C2 (stereo not shown) [Compound 10] | 0.024 µM | 0.018 µM | –
4 | Cc1ccc(F)cc1C(=O)Nc1ccc(C(=O)N2CCC3(C=C(C(=O)NCCO)CC3)Cc3ccccc32)c(Cl)c1 (stereo not shown) [Compound 11] | 0.028 µM | 0.01 µM | –
5 | COC(=O)CNC(=O)C1=CC2(CC1)CCN(C(=O)c1ccc(NC(=O)c3ccccc3-c3ccccc3)cc1)c1ccccc1C2 (stereo not shown) [Compound 12] | 0.013 µM | 0.018 µM | –
6 | N#Cc1ccc(C(=O)N2CCC3(CCCCC3)Cc3ccccc32)cc1 [Compound 24] | 0.8 µM | – | inhibition at 10 µM (human V2 receptor; [1]): 26%
7 | Nc1ccc(C(=O)N2CCC3(CCCCC3)Cc3ccccc32)cc1 [Compound 25] | 10 µM | – | inhibition at 10 µM (human V2 receptor; [1]): 7%
8 | Cc1ccccc1C(=O)Nc1ccc(C(=O)N2CCC3(CCCCC3)Cc3ccccc32)cc1 [Compound 28] | 0.25 µM | – | Receptor Binding V2 (% Inh. @ concentration in μM) (human V2 receptor; @ 10 μM): 1% @ 10
9 | COc1ccc(C(=O)N2CCC3(CCCCC3=O)Cc3ccccc32)cc1 (stereo not shown) [Compound 29] | 0.013 µM | – | inhibition at 1 µM (human V2 receptor; @ 1 μM, read-out: Receptor Binding V2 (% Inh. @ concentration in μM)): 8%
10 | O=C(Nc1ccc(C(=O)N2CCC3(CCCCC3=O)Cc3ccccc32)cc1)c1ccccc1-c1ccccc1 (stereo not shown) [Compound 30, 4-(2-Phenylbenzoyl-4-aminobenzoyl)-4-aza-2′-oxo-[6,5]-spiro-[5,6]-benzododecane] | 0.035 µM | 0.033 µM | –
11 | O=C(Nc1ccc(C(=O)N2CCC3(CCCCC3=O)Cc3ccccc32)cc1)c1ccccc1-c1ccccc1 (stereo not shown) [Compound 31] | 0.021 µM | 0.054 µM | –
12 | O=C(Nc1ccc(C(=O)N2CCC3(CCCCC3O)Cc3ccccc32)cc1)c1ccccc1-c1ccccc1 (stereo not shown) [Compound 32] | 0.061 µM | 0.028 µM | –
13 | O=C(c1ccccc1)N1CCC2(C=CCCC2)Cc2ccccc21 (stereo not shown) [Compound 34] | 0.65 µM | – | –
14 | O=C(c1ccncc1)N1CCC2(C=CCCC2)Cc2ccccc21 (stereo not shown) [Compound 35] | 1.4 µM | > 25 µM | –
15 | O=C(c1ccc(C(F)(F)F)cc1)N1CCC2(C=CCCC2)Cc2ccccc21 (stereo not shown) [Compound 38] | 1.6 µM | – | Receptor Binding V2 (% Inh. @ concentration in μM) (human V2 receptor; @ 10 μM): 35% @ 10
16 | O=C(c1ccc(Cl)cc1)N1CCC2(C=CCCC2)Cc2ccccc21 (stereo not shown) [Compound 39] | 1.1 µM | 10 µM | –
17 | O=C(c1ccc(I)cc1)N1CCC2(C=CCCC2)Cc2ccccc21 (stereo not shown) [Compound 40] | 0.57 µM | – | Receptor Binding V2 (% Inh. @ concentration in μM) (human V2 receptor; @ 10 μM): 27% @ 10
18 | NCc1ccc(C(=O)N2CCC3(C=CCCC3)Cc3ccccc32)cc1 (stereo not shown) [Compound 42] | – | – | Receptor Binding V1a (% Inh. @ concentration in μM) (V1a; @ 10 μM): 0% @ 10; Receptor Binding V2 (% Inh. @ concentration in μM) (human V2 receptor; @ 10 μM): 24% @ 10
19 | O=C(c1ccc(F)cc1)N1CCC2(C=CCCC2)Cc2ccccc21 (stereo not shown) [Compound 44] | – | – | Receptor Binding V2 (% Inh. @ concentration in μM) (human V2 receptor; @ 10 μM): 42% @ 10

Further lines, with some results ahead:

Row | IC50 (V1a) | IC50 (human V2 receptor) | Compound | further results
20 | 0.024 µM | 0.57 µM | O=C(Nc1ccc(C(=O)N2CCC3(C=CCCC3)Cc3ccccc32)cc1)c1ccccc1F (single isomer, unassigned) [Compound 108] | –
21 | 0.014 µM | 0.3 µM | O=C(Nc1ccc(C(=O)N2CCC3(C=CCCC3)Cc3ccccc32)cc1)c1ccccc1F (single isomer, unassigned) [Compound 109] | –
22 | 0.32 µM | – | Cc1ccc(C(=O)N2CCC3(C=CCCC3)Cc3ccccc32)cc1 (stereo not shown) [Compound 41] | Receptor Binding V2 (% Inh. @ concentration in μM) (human V2 receptor; @ 10 μM): 0% @ 10
23 | 0.68 µM | – | O=C(c1ccc(F)c(F)c1)N1CCC2(C=CCCC2)Cc2ccccc21 (stereo not shown) [Compound 43] | inhibition at 10 µM (human V2 receptor; [1]): 42%
24 | 0.11 µM | 10 µM | CN(C)c1ccc(C(=O)N2CCC3(C=CCCC3)Cc3ccccc32)cc1 (stereo not shown) [Compound 45] | –
25 | 3.5 µM | – | O=C(c1cccc(Cl)c1)N1CCC2(C=CCCC2)Cc2ccccc21 (stereo not shown) [Compound 46] | inhibition at 10 µM (human V2 receptor; [1]): 33%
26 | 0.39 µM | – | O=C(c1cc(F)cc(F)c1)N1CCC2(C=CCCC2)Cc2ccccc21 (stereo not shown) [Compound 47] | Receptor Binding V2 (% Inh. @ concentration in μM) (human V2 receptor; @ 10 μM): 29% @ 10
27 | 0.38 µM | – | O=C(c1ccc([N+](=O)[O-])cc1)N1CCC2(C=CCCC2)Cc2ccccc21 (stereo not shown) [Compound 49, 4-(4-Nitrobenzoyl)-4-aza-[6,5]-spiro-[5,6]-benzododec-2′-ene] | inhibition at 10 µM (human V2 receptor; [1]): 30%
